Assay results taken from ChEMBL document CHEMBL1201862, “PubChem BioAssay data set” (2004).
The source made the active and inactive calls.

What was measured:
[1] = molecular target: Polyadenylate-binding protein 1 (Homo sapiens, UniProt P11940); assay: blockers of PABP interaction with poly(A) – biochemical, fluorescence polarization, […] (AID 2014)
[2] = molecular target: Eukaryotic translation initiation factor 4H (Homo sapiens, UniProt Q15056); assay: eIF4H binding inhibition – biochemical, uHTS, fluorescence polarization, translation initiation inhibitor project, primary screen (AID 2012)
[3] = molecular target: Neuropeptide Y receptor type 1 (Homo sapiens, UniProt P25929); assay: Fluorescence-based counterscreen for agonists of NPY-Y2: cell-based high-throughput dose response assay for agonists of NPY-Y1.; assay type: functional
[4] = molecular target: Peroxisome proliferator-activated receptor gamma/Nuclear receptor coactivator 3 (Homo sapiens, UniProt P37231); assay: (§1) TR-FRET dose response biochemical High Throughput Screening assay for agonists of the steroid receptor coactivator 3 (SRC-3) recruitment by the peroxisome proliferator-activated receptor gamma (PPAR gamma): non-selective agonists. [Related pubchem assays: 1301 (Confirmation screen.), 1048 (Primary screen.)]; assay type: functional
Sequence of Peroxisome proliferator-activated receptor gamma/Nuclear receptor coactivator 3 (P37231 whole entry): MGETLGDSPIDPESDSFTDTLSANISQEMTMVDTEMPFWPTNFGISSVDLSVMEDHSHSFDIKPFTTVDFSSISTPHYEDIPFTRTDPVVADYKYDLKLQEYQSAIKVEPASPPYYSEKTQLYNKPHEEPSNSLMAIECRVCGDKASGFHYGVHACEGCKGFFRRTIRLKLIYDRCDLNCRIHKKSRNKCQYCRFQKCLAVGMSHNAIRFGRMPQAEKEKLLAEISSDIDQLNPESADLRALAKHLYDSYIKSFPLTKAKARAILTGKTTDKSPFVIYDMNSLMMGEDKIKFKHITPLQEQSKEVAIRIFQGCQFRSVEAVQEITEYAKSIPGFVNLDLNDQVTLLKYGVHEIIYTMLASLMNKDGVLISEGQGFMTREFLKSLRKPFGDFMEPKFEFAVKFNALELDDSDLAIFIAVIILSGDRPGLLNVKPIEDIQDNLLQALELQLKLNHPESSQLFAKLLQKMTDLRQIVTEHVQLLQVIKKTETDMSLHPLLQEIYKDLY
Sequence of Peroxisome proliferator-activated receptor gamma/Nuclear receptor coactivator 3 (Q9Y6Q9 whole entry, further chain): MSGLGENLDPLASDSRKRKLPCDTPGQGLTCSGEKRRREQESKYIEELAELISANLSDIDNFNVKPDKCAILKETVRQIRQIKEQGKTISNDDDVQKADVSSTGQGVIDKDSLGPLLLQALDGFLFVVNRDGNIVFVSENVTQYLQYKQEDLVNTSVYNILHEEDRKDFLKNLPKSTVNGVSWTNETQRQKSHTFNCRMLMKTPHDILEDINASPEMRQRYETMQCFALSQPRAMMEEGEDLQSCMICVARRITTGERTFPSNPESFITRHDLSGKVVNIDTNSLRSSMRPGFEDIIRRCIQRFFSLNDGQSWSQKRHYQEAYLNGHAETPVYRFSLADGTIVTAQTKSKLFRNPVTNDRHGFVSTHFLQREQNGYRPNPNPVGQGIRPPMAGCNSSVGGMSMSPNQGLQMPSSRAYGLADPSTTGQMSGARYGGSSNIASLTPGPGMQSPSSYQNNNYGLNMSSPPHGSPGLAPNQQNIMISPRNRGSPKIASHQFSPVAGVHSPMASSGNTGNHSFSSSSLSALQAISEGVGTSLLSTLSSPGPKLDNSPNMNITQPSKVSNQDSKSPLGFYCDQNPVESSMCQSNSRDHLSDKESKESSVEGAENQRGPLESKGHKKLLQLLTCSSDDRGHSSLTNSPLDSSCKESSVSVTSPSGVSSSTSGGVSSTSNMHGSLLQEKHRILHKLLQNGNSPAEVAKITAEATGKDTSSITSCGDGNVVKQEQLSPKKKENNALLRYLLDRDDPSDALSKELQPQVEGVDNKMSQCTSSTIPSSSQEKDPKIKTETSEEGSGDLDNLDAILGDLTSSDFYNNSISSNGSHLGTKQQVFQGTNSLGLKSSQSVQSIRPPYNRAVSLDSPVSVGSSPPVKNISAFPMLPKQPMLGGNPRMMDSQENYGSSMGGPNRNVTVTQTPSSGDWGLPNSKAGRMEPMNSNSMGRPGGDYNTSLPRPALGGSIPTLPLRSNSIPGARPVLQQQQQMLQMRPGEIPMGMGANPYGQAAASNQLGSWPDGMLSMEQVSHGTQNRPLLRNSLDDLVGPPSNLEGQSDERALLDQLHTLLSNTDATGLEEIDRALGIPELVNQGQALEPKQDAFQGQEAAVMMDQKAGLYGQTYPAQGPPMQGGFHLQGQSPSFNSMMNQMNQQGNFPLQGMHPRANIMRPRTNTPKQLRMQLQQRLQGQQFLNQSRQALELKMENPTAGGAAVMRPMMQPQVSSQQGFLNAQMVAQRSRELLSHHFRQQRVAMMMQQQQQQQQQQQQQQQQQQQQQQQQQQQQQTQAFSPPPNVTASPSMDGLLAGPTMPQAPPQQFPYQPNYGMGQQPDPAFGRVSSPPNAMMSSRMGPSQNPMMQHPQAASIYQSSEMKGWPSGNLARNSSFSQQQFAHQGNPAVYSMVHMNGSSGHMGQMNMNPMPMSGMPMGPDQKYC

[5] = molecular target: Peroxisome proliferator-activated receptor gamma/Nuclear receptor coactivator 1 (Homo sapiens, UniProt P37231); assay: as §1, with “1 (SRC-1)” for “3 (SRC-3)”, “assays (depositor defined):AID1300, AID1808, AID504735, AID631]” for “assays: 1301 (Confirmation screen.), 1048 (Primary screen.)]”; assay type: protein assay
Sequence of Peroxisome proliferator-activated receptor gamma/Nuclear receptor coactivator 1 (P37231 whole entry): as the sequence (P37231 whole entry) above
Sequence of Peroxisome proliferator-activated receptor gamma/Nuclear receptor coactivator 1 (Q15788 whole entry, further chain): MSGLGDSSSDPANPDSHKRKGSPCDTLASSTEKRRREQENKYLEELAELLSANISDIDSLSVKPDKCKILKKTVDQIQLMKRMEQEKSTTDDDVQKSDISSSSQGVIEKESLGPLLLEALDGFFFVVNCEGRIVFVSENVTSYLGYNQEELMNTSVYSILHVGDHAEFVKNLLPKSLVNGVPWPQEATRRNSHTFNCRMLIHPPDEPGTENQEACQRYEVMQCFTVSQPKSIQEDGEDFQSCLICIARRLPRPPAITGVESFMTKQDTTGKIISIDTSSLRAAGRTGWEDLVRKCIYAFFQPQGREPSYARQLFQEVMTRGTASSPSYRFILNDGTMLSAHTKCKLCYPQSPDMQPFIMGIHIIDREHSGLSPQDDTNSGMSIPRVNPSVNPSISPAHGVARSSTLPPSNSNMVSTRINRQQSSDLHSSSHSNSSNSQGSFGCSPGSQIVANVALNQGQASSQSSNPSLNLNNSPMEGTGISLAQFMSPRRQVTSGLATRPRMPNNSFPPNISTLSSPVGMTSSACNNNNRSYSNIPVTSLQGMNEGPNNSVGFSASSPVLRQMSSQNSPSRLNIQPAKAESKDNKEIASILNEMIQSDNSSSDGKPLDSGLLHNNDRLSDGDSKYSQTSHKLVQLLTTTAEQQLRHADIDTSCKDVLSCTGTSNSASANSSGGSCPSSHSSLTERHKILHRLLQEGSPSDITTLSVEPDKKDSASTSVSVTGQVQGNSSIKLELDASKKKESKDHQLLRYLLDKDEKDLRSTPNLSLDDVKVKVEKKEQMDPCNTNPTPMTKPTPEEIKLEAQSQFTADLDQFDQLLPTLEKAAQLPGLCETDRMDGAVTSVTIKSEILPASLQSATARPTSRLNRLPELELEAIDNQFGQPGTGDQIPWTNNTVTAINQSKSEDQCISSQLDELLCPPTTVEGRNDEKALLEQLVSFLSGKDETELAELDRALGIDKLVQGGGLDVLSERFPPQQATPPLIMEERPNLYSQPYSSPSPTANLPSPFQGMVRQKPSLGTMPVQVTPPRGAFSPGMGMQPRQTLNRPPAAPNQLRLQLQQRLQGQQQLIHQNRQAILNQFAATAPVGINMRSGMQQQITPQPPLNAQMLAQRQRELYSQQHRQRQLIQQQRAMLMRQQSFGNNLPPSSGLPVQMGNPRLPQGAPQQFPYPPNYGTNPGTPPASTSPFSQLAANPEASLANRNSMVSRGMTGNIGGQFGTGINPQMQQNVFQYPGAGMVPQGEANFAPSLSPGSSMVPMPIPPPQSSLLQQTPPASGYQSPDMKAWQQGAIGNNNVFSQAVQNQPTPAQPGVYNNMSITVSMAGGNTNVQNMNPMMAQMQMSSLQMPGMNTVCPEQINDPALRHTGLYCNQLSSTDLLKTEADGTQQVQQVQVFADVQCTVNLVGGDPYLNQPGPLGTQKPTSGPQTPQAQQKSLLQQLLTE

[6] = molecular target: Peroxisome proliferator-activated receptor gamma/Nuclear receptor coactivator 2 (Homo sapiens, UniProt P37231); assay: TR-FRET dose response biochemical High Throughput Screening assay for agonists of the steroid receptor coactivator 2 (SRC-2) recruitment by the peroxisome proliferator-activated receptor gamma (PPAR gamma): non-selective agonists. [Related pubchem assays: 1297, 1032 ]; assay type: functional
[7] = system: HEK293; assay: Fluorescence-based counterscreen for potentiators or agonists of NPY-Y2: cell-based high-throughput dose response assay to identify inhibitors of cyclic nucleotide gated ion channel (CNGC) activity. In this assay, the parental HEK293 cell line transfected with a cyclic-nucleotide gated ion channel (CNGC)-based cAMP sensor is used to measure inhibition of isoproterenol-induced CNGC activity by test compound.; assay type: functional; details: Homo sapiens;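 also: stimulus is 1 µM isoproterenol at EC100 plus PDE inhibitor Ro 20-1724 at 25 µM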
[8] = molecular target: Neuropeptide Y receptor type 2 (Homo sapiens, UniProt P49146); assay: Fluorescence-based cell-based high-throughput dose response assay for agonists of NPY-Y2. [Related pubchem assays: 1703 (Screening assay (CNGC inhibitors).), 1359 (Screening assay (NPY-Y2 potentiators or agonists).), 1304 (Screening assay (NPY-Y1 potentiators or agonists).), 1710 (Screening assay (NPY-Y2 agonists).), 1791 (Summary AID.)]; assay type: functional
[9] = molecular target: Aminopeptidase N (Plasmodium falciparum FcB1/Columbia, UniProt O96935); assay: malaria alanyl aminopeptidase activity blockers – biochemical, fluorogenic H-Leu-NHMec substrate, 1536-well (AID 1445); set-up: species or system Plasmodium falciparum 3D7, 3D7
Sequence of Aminopeptidase N (O96935 whole entry): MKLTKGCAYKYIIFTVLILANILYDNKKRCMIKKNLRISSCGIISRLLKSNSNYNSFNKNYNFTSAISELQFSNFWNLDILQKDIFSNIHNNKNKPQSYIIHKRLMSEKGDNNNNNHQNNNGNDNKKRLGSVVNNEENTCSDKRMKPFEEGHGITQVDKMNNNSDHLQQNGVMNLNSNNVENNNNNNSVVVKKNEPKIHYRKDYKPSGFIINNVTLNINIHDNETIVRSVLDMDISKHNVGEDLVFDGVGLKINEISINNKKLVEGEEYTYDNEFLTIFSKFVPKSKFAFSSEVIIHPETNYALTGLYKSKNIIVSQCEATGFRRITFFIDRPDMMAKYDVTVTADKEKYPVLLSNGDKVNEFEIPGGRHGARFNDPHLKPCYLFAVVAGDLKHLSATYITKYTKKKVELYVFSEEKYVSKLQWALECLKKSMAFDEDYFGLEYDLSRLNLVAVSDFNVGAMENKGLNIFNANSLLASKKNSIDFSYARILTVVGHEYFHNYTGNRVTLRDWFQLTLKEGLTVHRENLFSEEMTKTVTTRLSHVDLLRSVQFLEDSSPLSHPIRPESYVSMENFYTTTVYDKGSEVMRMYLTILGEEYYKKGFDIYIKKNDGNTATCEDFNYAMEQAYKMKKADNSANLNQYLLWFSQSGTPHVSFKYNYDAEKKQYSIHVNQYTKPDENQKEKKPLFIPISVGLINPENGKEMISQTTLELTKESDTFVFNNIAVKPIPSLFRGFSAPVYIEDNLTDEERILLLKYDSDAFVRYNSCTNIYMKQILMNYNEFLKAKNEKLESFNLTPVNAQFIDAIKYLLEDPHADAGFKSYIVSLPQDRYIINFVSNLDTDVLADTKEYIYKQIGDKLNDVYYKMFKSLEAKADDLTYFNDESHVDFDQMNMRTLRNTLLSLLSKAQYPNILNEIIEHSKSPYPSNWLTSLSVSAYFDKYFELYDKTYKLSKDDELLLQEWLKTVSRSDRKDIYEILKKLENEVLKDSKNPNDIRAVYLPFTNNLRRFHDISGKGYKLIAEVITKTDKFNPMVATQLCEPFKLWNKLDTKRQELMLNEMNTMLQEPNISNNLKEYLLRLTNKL

[10] = viability of PTEN-deleted HCT116 cells – cell-based, HCT116 PTEN knockout, dose response (AID 1047); assay type: functional;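 also: HCT116 colon tumor cells with PTEN knocked out; cells exposed to compound for 60 hours before readout; potency for loss of cell viability measured by luminescence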
[11] = viability of HCT116 lacking mutant beta-catenin – cell-based, human colon tumor, dose response (AID 1045); assay type: functional;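 also: HCT116 colon tumor cells with beta catenin knocked out; cells exposed to compound for 60 hours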
[12] = molecular target: Vasopressin V1a receptor (Homo sapiens, UniProt P37288); assay: Counterscreen for Oxytocin Receptor (OXTR) agonists: Fluorescence-based cell-based high throughput dose response assay to identify agonists of the vasopressin 1 receptor (V1R). [Related pubchem assays: 2435 (Primary screen (OXTR agonists in singlicate)), 434991 (Counterscreen (V1R agonists in triplicate)), 2482 (Summary (OXTR agonists)) …; assay type: functional
[13] = system: INS1; assay: INS-1E survival protection against cytokine death – cell-based, luminescence, retest, dose response (AID 449756); assay type: functional; details: Rattus norvegicus;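 also: cell death triggered by IL-1 beta plus TNF-alpha plus IFN-gamma mixture; protective hits raise ATP signal compared with cytokine alone wells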
[14] = Luminescence Cell-Based Dose Retest to Confirm Inhibitors of Cancer Stem Cells. [Related pubchem assays (depositor defined):AID2717, AID2721]; assay type: functional; details: Homo sapiens
[15] = molecular target: Oxytocin receptor (Homo sapiens, UniProt P30559); assay: Fluorescence-based cell-based high throughput dose response assay for agonists of the Oxytocin Receptor (OXTR). [Related pubchem assays: 2435 (Primary screen (OXTR agonists in singlicate)), 434991 (Counterscreen (V1R agonists in triplicate)), 2482 (Summary (OXTR agonists)), 434963 (Confirmation screen (OXTR agonists in triplicate))]; assay type: functional
[16] = Counterscreen for IDE inhibitors: Luminescence-based cell-based high throughput dose response assay to identify compounds that are cytotoxic to HEK cells. [Related pubchem assays: 434962 (Primary screen (IDE inhibitors in singlicate)), 449730 (Counterscreen (Cytotoxicity in triplicate)), 435028 (Confirmation (IDE inhibitors in triplicate)) …; assay type: functional; details: HEK293
[17] = molecular target: T1, Insulin-degrading enzyme (Homo sapiens, UniProt P14735); assay: Dose Response: Fluorescence polarization-based cell-based high throughput dose response assay for inhibitors of insulin-degrading enzyme (IDE). [Related pubchem assays: 434962 (Primary screen (IDE inhibitors in singlicate)), 449730 (Counterscreen (Cytotoxicity in triplicate)), 435028 (Confirmation (IDE inhibitors in triplicate)), 434984 (Summary …; assay type: functional
T1 sequence (P14735 whole entry): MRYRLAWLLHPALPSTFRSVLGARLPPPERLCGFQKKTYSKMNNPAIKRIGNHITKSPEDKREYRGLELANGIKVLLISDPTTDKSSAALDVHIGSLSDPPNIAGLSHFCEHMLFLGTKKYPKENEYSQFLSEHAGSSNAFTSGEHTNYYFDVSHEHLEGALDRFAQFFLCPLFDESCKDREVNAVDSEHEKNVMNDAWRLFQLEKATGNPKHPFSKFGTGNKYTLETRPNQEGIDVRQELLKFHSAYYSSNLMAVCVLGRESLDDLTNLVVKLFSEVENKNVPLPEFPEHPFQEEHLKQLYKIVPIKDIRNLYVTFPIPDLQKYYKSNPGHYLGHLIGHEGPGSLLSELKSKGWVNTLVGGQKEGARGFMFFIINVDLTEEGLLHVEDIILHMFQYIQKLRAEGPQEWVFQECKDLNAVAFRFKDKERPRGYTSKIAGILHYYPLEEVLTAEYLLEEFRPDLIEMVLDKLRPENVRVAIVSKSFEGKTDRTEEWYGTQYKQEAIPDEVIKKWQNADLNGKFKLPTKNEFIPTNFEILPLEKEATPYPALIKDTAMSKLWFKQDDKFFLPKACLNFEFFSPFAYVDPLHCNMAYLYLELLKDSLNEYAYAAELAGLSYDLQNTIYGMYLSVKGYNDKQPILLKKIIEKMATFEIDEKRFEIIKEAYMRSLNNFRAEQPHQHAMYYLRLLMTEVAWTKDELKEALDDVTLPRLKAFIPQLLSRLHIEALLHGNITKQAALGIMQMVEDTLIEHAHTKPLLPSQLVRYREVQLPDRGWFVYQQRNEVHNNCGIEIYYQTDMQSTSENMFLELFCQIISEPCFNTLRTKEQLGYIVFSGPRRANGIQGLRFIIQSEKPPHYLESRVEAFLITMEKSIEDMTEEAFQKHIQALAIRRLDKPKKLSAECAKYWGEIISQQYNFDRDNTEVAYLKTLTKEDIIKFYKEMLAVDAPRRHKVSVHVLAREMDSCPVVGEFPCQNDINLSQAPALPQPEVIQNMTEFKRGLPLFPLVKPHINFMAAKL

[18] = molecular target: Aspartyl aminopeptidase (Plasmodium falciparum 3D7, UniProt Q8I2J3)
[19] = molecular target: Procathepsin L (Homo sapiens, UniProt P07711)
[20] = molecular target: Cytochrome P450 3A4 (Homo sapiens, UniProt P08684); details: Potency;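 also: confirmatory qHTS run detecting inhibitors and substrates of CYP3A4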
[21] = molecular target: Cytochrome P450 2C9 (Homo sapiens, UniProt P11712); details: Potency

In the case of `C[N+]1(C)[C@@H]2CC[C@H]1CC(OC(=O)C(c1ccccc1)c1ccccc1)C2` (stereo partly specified), the IC50 [1] is reported as 6.66 µM (active) and the IC50 [2] is reported as > 100 µM (inactive).
In the case of `CC(C)OC(=O)C(C)Nc1nnc(S)nc1O` (stereo unspecified), the EC50 [3] is reported as > 35.4 µM (not active), the EC50 [4] is reported as 35.1 µM (not active) and the EC50 [5] is reported as 4.26 µM (active). For the same compound, the EC50 [6] was 4.97 µM (active), the EC50 [7] was > 35.4 µM (not active) and the EC50 [8] was > 35.4 µM (not active).
With `CC(C)CCNC(=O)CSc1nc2ccsc2c(=O)n1NC(=O)c1ccccc1` the IC50 [9] was 87.1 µM (active).
With `COc1ccc(C2NCCc3c2[nH]c2ccccc32)cc1COc1ccc(F)cc1` (stereo unspecified) the EC50 [10] was 6.19 µM (active), the EC50 [11] was 7.05 µM (active) and the EC50 [12] was 20.8 µM (not active). For the same compound, the AC50 [13] was 6.96 µM (active), the AC50 [14] was 5.89 µM (active) and the EC50 [15] was 26.7 µM (not active).
For `COC(=O)C1=C(C)N=c2s/c(=C/c3ccoc3)c(=O)n2C1c1ccccc1` (stereo unspecified), the IC50 [16] was 16.3 µM (not active) and the IC50 [17] was > 2.07 µM (active).
With `CC(C)(C)c1ccc(O)c(/N=C/c2cc(Br)ccc2O)c1` the IC50 [18] was 0.807 µM (active) and the IC50 [19] was > 59.6 µM (not active).
In the case of `COc1cc2c(cc1O)C[C@H]1c3c(cc(OC)c(O)c3-2)CCN1C` [ISOBOLDINE], the AC50 [20] is reported as 20 µM (inconclusive) and the AC50 [21] is reported as 25.1 µM (inconclusive).
